23 compounds from patent US9738604B2, “Ethynylbenzene derivatives” (Duke University, priority 2010, dated 2017) can be followed below.

Common to all, as to assay type: cell-based
Assay [1] has as its system Acinetobacter Baumannii antibiotic susceptible strain (Sus. A.b. Isolate). Description: Disk diffusion assay, antibiotic susceptible strain. Conditions: 2 μg of compound per disc, disc 6 mm in diameter; for zone of inhibition at 2 µg/disc: Acinetobacter baumannii, read-out: diameter of the growth inhibition, Sus. A.b. Isolate. Set-up: key to diameter of the growth inhibition, Sus. A.b. Isolate: A: no detectable inhibition; B: 6-10 mm; C: 11-15 mm; D: ≧16. (In agar diffusion tests the substance spreads into inoculated agar from a disc or well.)

Assay [2] concerns E. coli W3110RL. Description: microbe, parasite or virus in culture. Particulars: for MIC: Escherichia coli, W3110RL, 22 h, read-out: MIC E. coli W3110RL.
Assay [3] concerns E. coli W3110. Nature of the assay: microbe, parasite or virus in culture. Conditions: for MIC: Escherichia coli, W3110, 22 h, read-out: MIC E. coli W3110.
Assay [4] deals with E. coli W3110PA. Nature of the assay: microbe, parasite or virus in culture. Conditions: for MIC: Escherichia coli, W3110PA, 22 h, read-out: MIC E. coli W3110PA.
The subject of assay [5] is P. aeruginosa (PAO1). Nature of the assay: MIC, P. aeruginosa. Conditions: for MIC: Pseudomonas aeruginosa, read-out: MIC P. aeruginosa (PAO1).
Assay [6] concerns Acinetobacter Baumannii multidrug-resistant strain (MDR A.b. Isolate). Description: Disk diffusion assay, multidrug-resistant strain. The arrangement: key to diameter of the growth inhibition, MDR A.b. Isolate: A: no detectable inhibition; B: 6-10 mm; C: 11-15 mm; D: ≧16. Particulars: 2 μg of compound per disc, disc 6 mm in diameter; for zone of inhibition at 2 µg/disc: Acinetobacter baumannii, read-out: diameter of the growth inhibition, MDR A.b. Isolate.

The test system of assay [7] is N. gonorrhoeae FA19. Nature of the assay: MIC, N. gonorrhoeae drug-sensitive strain. Particulars: Neisseria gonorrhoeae, read-out: MIC N. gonorrhoeae FA 19.
For assay [8], the system named is N. gonorrhoeae 35/02. Description: MIC, N. gonorrhoeae drug-resistant strain. Conditions: Neisseria gonorrhoeae; drug-resistant strain 35/02.
The mark [9] stands for this setting: P. aeruginosa PAO1, 22 hours at 37° C., MTT.

Values after ≈ are worked out from the molar mass of the structure shown. Like-named read-outs stand apart in the source and are kept apart here.

Turning to `C[C@@H](O)[C@H](NC(=O)c1ccc(C#CC#Cc2cccc(N)c2)cc1)C(=O)NO` [CPD-012, (2S,3R)-2-{4′-[(3″-aminophenyl)buta-1′,3′-diynyl]benzamido}-1,3-dihydroxybutanamide], the “diameter of the growth inhibition, Sus. A.b. Isolate” value in assay [1] is on record as “A”. The “MIC E. coli W3110RL” value in assay [2] (E. coli with lpxC of R. leguminosarum, 22 hours at 37° C., MTT) is given as “B (1-10 μg/mL)”. For the same compound, in assay [3], the “MIC E. coli W3110” value was “A (key: A: <1 μg/mL; B: 1-10 μg/mL; C: 11-50 μg/mL; D: 51-100 μg/mL; E: >100 μg/mL)”. Moreover, in assay [4] (E. coli with lpxC of P. aeruginosa, 22 hours at 37° C., MTT), the “MIC E. coli W3110PA” value was “A (<1 μg/mL)”. Also, the “MIC P. aeruginosa (PAO1)” value in assay [5] (setting [9]) is “A (<1 μg/mL)”. Further, in assay [6], the “diameter of the growth inhibition, MDR A.b. Isolate” value is “A”.
For `CC(C)(O)[C@H](NC(=O)c1ccc(C#CC#Cc2ccc(N)cc2)cc1)C(=O)NO` [CPD-037, (2S)-2-({4′-[4′-(4′-aminophenyl)buta-1′,3′-diyn-1-yl]phenyl}formamido)-N,3′-dihydroxy-3′-methylbutanamide], the zone of inhibition at 2 µg/disc in assay [1] was in the range of 11 to 15 mm; in assay [6], 6 to 10 mm. The MIC in assay [2] was 1 to 10 µg/mL (≈ 2.55 to 25.5 µM); in assay [3] it was under 1 µg/mL; in assay [4], under 1 µg/mL; in assay [5] (PAO1, 22 h), under 1 µg/mL.
`C[C@](O)(c1ccc(O)cc1)[C@H](NC(=O)c1ccc(C#CC#Cc2ccc(N)cc2)cc1)C(=O)NO` [CPD-051, 4-((4-aminophenyl)buta-1,3-diynyl)-N-((2S)-3-hydroxy-1-(hydroxyamino)-3-(4-hydroxyphenyl)-1-oxobutan-2-yl)benzamide]: the “diameter of the growth inhibition, Sus. A.b. Isolate” value in assay [1] is listed as “A”. For the same compound, the MIC in assay [2] was 51 to 100 µg/mL (≈ 109 to 213 µM); in assay [3] it was under 1 µg/mL; in assay [4], under 1 µg/mL; in assay [5] (PAO1, 22 h) it was under 1 µg/mL. The “diameter of the growth inhibition, MDR A.b. Isolate” value in assay [6] is reported as “A”.
Regarding `C[C@@H](O)[C@@H](NC(=O)c1ccc(C#CC#Cc2ccc(N)cc2)cc1)C(=O)NO` [CPD-054, (2R,3R)-2-{4′-[(4″-aminophenyl)buta-1′,3′-diynyl]benzamido}-1,3-dihydroxybutanamide], the MIC lay within 51 to 100 µg/mL (≈ 135 to 265 µM) in assay [2]; 1 to 10 µg/mL (≈ 2.65 to 26.5 µM) in assay [3]; 11 to 50 µg/mL (≈ 29.1 to 132 µM) in assay [4]; 11 to 50 µg/mL (≈ 29.1 to 132 µM) in assay [5] (PAO1, 22 h).
As to `C[C@H](O)[C@@H](NC(=O)c1ccc(C#CC#Cc2ccc(N)cc2)cc1)C(=O)NO` [CPD-055, (2R,3S)-2-{4′-[(4″-aminophenyl)buta-1′,3′-diynyl]benzamido}-1,3-dihydroxybutanamide], the MIC in assay [2] is 51 to 100 µg/mL (≈ 135 to 265 µM); in assay [3] it was 1 to 10 µg/mL (≈ 2.65 to 26.5 µM); in assay [4], 11 to 50 µg/mL (≈ 29.1 to 132 µM); in assay [5] (PAO1, 22 h), 11 to 50 µg/mL (≈ 29.1 to 132 µM).
Consider `Nc1ccc(C#CC#Cc2ccc(C(=O)N[C@H](C(=O)NO)[C@H](O)C(F)F)cc2)cc1` [CPD-056, 4-((4-aminophenyl)buta-1,3-diynyl)-N-((2S,3S)-4,4-difluoro-3-hydroxy-1-(hydroxyamino)-1-oxobutan-2-yl)benzamide], for which the MIC in assay [2] is 1 to 10 µg/mL (≈ 2.42 to 24.2 µM); in assay [3], under 1 µg/mL; in assay [4], under 1 µg/mL; in assay [5] (PAO1, 22 h), under 1 µg/mL.
Turning to `Nc1ccc(C#CC#Cc2ccc(C(=O)N[C@H](C(=O)NO)[C@H](O)C(F)(F)F)cc2)cc1` [CPD-057, 4-((4-aminophenyl)buta-1,3-diynyl)-N-((2S,3S)-4,4,4-trifluoro-3-hydroxy-1-(hydroxyamino)-1-oxobutan-2-yl)benzamide], the MIC in assay [2] was 51 to 100 µg/mL (≈ 118 to 232 µM); in assay [3], under 1 µg/mL; in assay [4], under 1 µg/mL; in assay [5] (PAO1, 22 h), under 1 µg/mL.
As to `C[C@@](O)(C(F)F)[C@H](NC(=O)c1ccc(C#CC#Cc2ccc(N)cc2)cc1)C(=O)NO` [CPD-058, 4-((4-aminophenyl)buta-1,3-diynyl)-N-((2S,3S)-4,4-difluoro-3-hydroxy-1-(hydroxyamino)-3-methyl-1-oxobutan-2-yl)benzamide], the zone of inhibition at 2 µg/disc in assay [1] and in assay [6] was 11 to 15 mm in each case. Moreover, the MIC in assay [2] is under 1 µg/mL; in assay [3], under 1 µg/mL; in assay [4], under 1 µg/mL; in assay [5] (PAO1, 22 h), under 1 µg/mL.
For the compound `C[C@@H](O)[C@H](NC(=O)c1ccc(C#CCOc2ccc(N)cc2)cc1)C(=O)NO` [CPD-059, 4-(3-(4-aminophenoxy)prop-1-ynyl)-N-((2S,3R)-3-hydroxy-1-(hydroxyamino)-1-oxobutan-2-yl)benzamide], the MIC in assay [2] was in the range of 51 to 100 µg/mL (≈ 133 to 261 µM); in assay [3], 1 to 10 µg/mL (≈ 2.61 to 26.1 µM); in assay [4], 11 to 50 µg/mL (≈ 28.7 to 130 µM); in assay [5] (PAO1, 22 h), 11 to 50 µg/mL (≈ 28.7 to 130 µM).
Consider `Nc1ccc(OCC#Cc2ccc(C(=O)N[C@@H]3CCN(O)C3=O)cc2)cc1` [CPD-060, (R)-4-(3-(4-aminophenoxy)prop-1-ynyl)-N-(1-hydroxy-2-oxopyrrolidin-3-yl)benzamide], for which the MIC in assay [2] was 51 to 100 µg/mL (≈ 140 to 274 µM); in assay [3], 1 to 10 µg/mL (≈ 2.74 to 27.4 µM); in assay [4], 11 to 50 µg/mL (≈ 30.1 to 137 µM); in assay [5] (PAO1, 22 h) it was 11 to 50 µg/mL (≈ 30.1 to 137 µM).
For `C[C@@](O)(CF)[C@H](NC(=O)c1ccc(C#CC#Cc2ccc(N)cc2)cc1)C(=O)NO` [CPD-061, 4-((4-aminophenyl)buta-1,3-diynyl)-N-((2S,3S)-4-fluoro-3-hydroxy-1-(hydroxyamino)-3-methyl-1-oxobutan-2-yl)benzamide], the MIC in assay [2] was 51 to 100 µg/mL (≈ 125 to 244 µM); in assay [3], under 1 µg/mL; in assay [4], 1 to 10 µg/mL (≈ 2.44 to 24.4 µM); in assay [5] (PAO1, 22 h), 1 to 10 µg/mL (≈ 2.44 to 24.4 µM).
In the case of `C[C@](O)(c1ccc(CO)cc1)[C@H](NC(=O)c1ccc(C#CC#Cc2ccc(N)cc2)cc1)C(=O)NO` [CPD-062, 4-((4-aminophenyl)buta-1,3-diynyl)-N-((2S,3S)-3-hydroxy-1-(hydroxyamino)-3-(4-(hydroxymethyl)phenyl)-1-oxobutan-2-yl)benzamide], the MIC in assay [2] is 51 to 100 µg/mL (≈ 105 to 207 µM); in assay [3] it was under 1 µg/mL; in assay [4] it was under 1 µg/mL; in assay [5] (PAO1, 22 h), 1 to 10 µg/mL (≈ 2.07 to 20.7 µM).
For `CC(C)(N)[C@H](NC(=O)c1ccc(C#CC#Cc2ccccc2N)cc1)C(=O)NO` [CPD-065, (S)-N-(3-amino-1-(hydroxyamino)-3-methyl-1-oxobutan-2-yl)-4-((2-aminophenyl)buta-1,3-diynyl)benzamide], the MIC fell in the range of 0.1 to 1 µg/mL (≈ 0.256 to 2.56 µM) in assay [7] and 2 to 4 µg/mL (≈ 5.12 to 10.2 µM) in assay [8].
With `CC(C)(O)[C@H](NC(=O)c1ccc(C#CC#Cc2ccccc2N)cc1)C(=O)NO` [CPD-066, (S)-4-((2-aminophenyl)buta-1,3-diynyl)-N-(3-hydroxy-1-(hydroxyamino)-3-methyl-1-oxobutan-2-yl)benzamide], the results for the MIC in assay [7] and in assay [8] were 0.1 to 1 µg/mL (≈ 0.255 to 2.55 µM) and 2 to 4 µg/mL (≈ 5.11 to 10.2 µM), respectively.
For the compound `C[C@@](O)(C(F)F)[C@H](NC(=O)c1ccc(C#CC#Cc2ccccc2N)cc1)C(=O)NO` [CPD-067, 4-((2-aminophenyl)buta-1,3-diynyl)-N-((2S,3S)-4,4-difluoro-3-hydroxy-1-(hydroxyamino)-3-methyl-1-oxobutan-2-yl)benzamide], the zone of inhibition at 2 µg/disc in assay [1] and in assay [6] was 6 to 10 mm throughout. Besides, the MIC in assay [7] is under 0.1 µg/mL; in assay [8], 0.1 to 1 µg/mL (≈ 0.234 to 2.34 µM).
Take `CC1(C)S[C@@H]2[C@H](NC(=O)C(C(=O)O)c3ccccc3)C(=O)N2[C@H]1C(=O)O` (stereo partly shown) [Carbenicillin]: the “diameter of the growth inhibition, Sus. A.b. Isolate” value in assay [1] is “A”. For the same compound, the “diameter of the growth inhibition, MDR A.b. Isolate” value in assay [6] is recorded as “A”.
In the case of `O=C(N[C@H](CO)[C@H](O)c1ccc([N+](=O)[O-])cc1)C(Cl)Cl` [Chloramphenicol], the zone of inhibition at 2 µg/disc in assay [1] is 6 to 10 mm. In addition, in assay [6], the “diameter of the growth inhibition, MDR A.b. Isolate” value is given as “A”.
Taken in the same sequence, the figures for `O=C(O)c1cn(C2CC2)c2cc(N3CCNCC3)c(F)cc2c1=O` [Ciprofloxacin] were at least 16 mm and “A”.
Take `C[C@@H](O)[C@H]1C(=O)N2C(C(=O)O)=C(SCCN=CN)C[C@H]12` [Imipenem]: the zone of inhibition at 2 µg/disc in assay [1] is at least 16 mm. In assay [6], the “diameter of the growth inhibition, MDR A.b. Isolate” value is on record as “A”.
In the case of `CN(C)[C@@H]1C(O)=C(C(N)=O)C(=O)[C@@]2(O)C(O)=C3C(=O)c4c(O)cccc4[C@@](C)(O)[C@H]3C[C@@H]12` [Tetracycline], the zone of inhibition at 2 µg/disc in assay [1] lay within 6 to 10 mm. Further, in assay [6], the “diameter of the growth inhibition, MDR A.b. Isolate” value is given as “A”.
Regarding `C[C@@H](O)[C@H](NC(=O)c1ccc(C#Cc2ccc(CN3CCOCC3)cc2)cc1)C(=O)NO` [drawing 320], the MIC in assay [2] was over 100 µg/mL; in assay [3], under 1 µg/mL; in assay [4], under 1 µg/mL; in assay [5] (setting [9]), under 1 µg/mL.
Consider `C[C@@H](O)[C@H](NC(=O)c1ccc(C#Cc2ccc(CN3CCOCC3)cc2)cc1)C(=O)NO` [drawing 321], for which the MIC in assay [7] and in assay [8] was 8 µg/mL (≈ 18.3 µM) each time.
For Polymyxin B, the “diameter of the growth inhibition, Sus. A.b. Isolate” value in assay [1] is given as “B (6-10 mm)”. For the same compound, the “diameter of the growth inhibition, MDR A.b. Isolate” value in assay [6] is recorded as “B (6-10 mm)”.
